The record followed here is article PMC6010021, “Mono- and di-thiocarbamate inhibition studies of the δ-carbonic anhydrase TweCAδ from the marine diatom Thalassiosira weissflogii” (Journal of Enzyme Inhibition and Medicinal Chemistry, 2018).

The experiment deals with T1, TweCAδ (Conticribra weissflogii, UniProt Q5U9J1).
T1 construct: gene ca1; recombinant protein produced as reported earlier by the group
T1 sequence (Q5U9J1 1-281): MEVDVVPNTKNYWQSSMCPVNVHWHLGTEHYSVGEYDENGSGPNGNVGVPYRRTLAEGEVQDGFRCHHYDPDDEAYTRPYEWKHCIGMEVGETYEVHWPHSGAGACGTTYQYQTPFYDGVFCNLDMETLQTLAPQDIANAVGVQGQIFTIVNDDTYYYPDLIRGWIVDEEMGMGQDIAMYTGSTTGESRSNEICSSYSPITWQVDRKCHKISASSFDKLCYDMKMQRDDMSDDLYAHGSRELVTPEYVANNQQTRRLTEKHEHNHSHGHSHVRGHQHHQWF
The experiment in a line: stopped-flow CO2 hydrase assay. Type of experiment: biochemical. The conditions noted are these: read-out: RR^1NCS2M (16-36) / KI (nM)^a / TweCAδ.
Take `S=C(S)N[C@H]1CN2CCC1CC2` [compound 21, DTC 21]: the Ki was more than 20000 nM. Consider `CC(C)CN(CC(C)C)C(=O)S` [compound 4, MTC 4], for which the Ki is more than 20000 nM. As to `O=C(S)NCCc1ccccc1` [compound 11, MTC 11], the Ki was found to be 997 nM. With `CN(C)CCNC(=S)S` [compound 16, DTC 16], the Ki was 8410 nM.

Consider `OCCCCCNC(=S)S` [compound 19, DTC 19], for which the Ki worked out at 8600 nM. `O=C(S)N1CCN(c2cccc(Cl)c2)CC1` [compound 13, MTC 13]: the Ki stood at 1510 nM. On to `CCCN(CCC)C(=O)S` [compound 1, MTC 1], for which the Ki is 807 nM. The same measure for `O=C(O)[C@H]1CCCN(C(=S)S)C1` [compound 28, DTC 28]: 556 nM; for `CC1COCCN1C(=S)S` (stereo not shown) [compound 32, DTC 32]: more than 20000 nM; for `CN1CCN(NC(=O)S)CC1` [compound 7, MTC 7]: 487 nM. In the case of `O=C(CN1CCN(C(=O)S)CC1)NC1CCCCC1` [compound 9, MTC 9], the Ki amounted to 129 nM. As for `O=C(S)N1CCN(c2ccc(F)cc2)CC1` [compound 14, MTC 14], the Ki amounted to 1500 nM. Regarding `CCOC(=O)CN(C)C(=O)S` [compound 5, MTC 5], the Ki was more than 20000 nM. As to `O=C(S)N1CCOCC1` [compound 6, MTC 6], the Ki was more than 20000 nM. As for `S=C(S)NC1CN2CCC1CC2` (stereo not shown) [compound 20, DTC 20], the Ki is more than 20000 nM. With `S=C(S)N1CCCCC1` [compound 23, DTC 23], the Ki is more than 20000 nM. The same measure for `COc1ccc(CCNC(=O)S)cc1OC` [compound 12, MTC 12]: 67.7 nM; for `O=C(S)N1CCN(c2ccc(C(F)(F)F)cc2)CC1` [compound 15, MTC 15]: 1150 nM. Consider `O=C(O)[C@@H]1CCCN(C(=S)S)C1` [compound 27, DTC 27], for which the Ki stood at 93.6 nM.

Consider `OC1CCCN(C(=S)S)C1` (stereo not shown) [compound 24, DTC 24], for which the Ki was more than 20000 nM. With `OCCCNC(=S)S` [compound 17, DTC 17], the Ki stood at 8690 nM. As to `S=C(S)NCCc1ccccc1` [compound 35, DTC 35], the Ki worked out at 897 nM. The figure for `O=C(CN1CCN(C(=S)S)CC1)NC1CCCCC1` [compound 34, DTC 34] is 791 nM; for `NS(=O)(=O)c1ccc(CCNC(=S)S)cc1` [compound 36, DTC 36] it is 704 nM. Regarding `OCCCCNC(=S)S` [compound 18, DTC 18], the Ki is 7170 nM. As for `O=C(O)C1CCCCN1C(=S)S` (stereo not shown) [compound 25, DTC 25], the Ki is more than 20000 nM. On to `S=C(S)N[C@@H]1CN2CCC1CC2` [compound 22, DTC 22], for which the Ki came to 7990 nM. `CN(Cc1ccccc1)C(=O)S` [compound 10, MTC 10]: the Ki was more than 20000 nM. Turning to `CCCCN(CCCC)C(=O)S` [compound 3, MTC 3], the Ki was found to be 1140 nM. Take `CCCCN(CC)C(=O)S` [compound 2, MTC 2]: the Ki stood at 783 nM. Take `O=C(O)C1CCN(C(=S)S)CC1` [compound 29, DTC 29]: the Ki is 8980 nM. Consider `O=C(O)C1CCCN(C(=S)S)C1` (stereo not shown) [compound 26, DTC 26], for which the Ki is 8430 nM. Take `CC(=O)NC1CCCN(C(=S)S)C1` (stereo not shown) [compound 30, DTC 30]: the Ki was 783 nM. Regarding `O=C(O)C1COCCN1C(=S)S` (stereo not shown) [compound 33, DTC 33], the Ki was more than 20000 nM.
